Test results taken from patent US20250084092A1, “ANNULATED PYRIDAZINE COMPOUND” (Nico Therapeutics, Inc., priority 2021, published 2025).
Counter-ions that a name gives are not always drawn.

How the values were obtained:
NLRP3 inflammasome = molecular target: T1, NLRP3 inflammasome (Homo sapiens, UniProt Q96P20); test: THP-1 IL-1β production inhibition test; type: cell-based; conditions: PMA-treated THP-1 cells, LPS 50 ng/mL + ATP 5 mM, 2 hours, IL-1β in supernatant by ELISA
T1 construct: endogenous in cells; host or cells: THP-1 cells (PMA-differentiated, stimulated with LPS and ATP)
T1 sequence (Q96P20 whole entry): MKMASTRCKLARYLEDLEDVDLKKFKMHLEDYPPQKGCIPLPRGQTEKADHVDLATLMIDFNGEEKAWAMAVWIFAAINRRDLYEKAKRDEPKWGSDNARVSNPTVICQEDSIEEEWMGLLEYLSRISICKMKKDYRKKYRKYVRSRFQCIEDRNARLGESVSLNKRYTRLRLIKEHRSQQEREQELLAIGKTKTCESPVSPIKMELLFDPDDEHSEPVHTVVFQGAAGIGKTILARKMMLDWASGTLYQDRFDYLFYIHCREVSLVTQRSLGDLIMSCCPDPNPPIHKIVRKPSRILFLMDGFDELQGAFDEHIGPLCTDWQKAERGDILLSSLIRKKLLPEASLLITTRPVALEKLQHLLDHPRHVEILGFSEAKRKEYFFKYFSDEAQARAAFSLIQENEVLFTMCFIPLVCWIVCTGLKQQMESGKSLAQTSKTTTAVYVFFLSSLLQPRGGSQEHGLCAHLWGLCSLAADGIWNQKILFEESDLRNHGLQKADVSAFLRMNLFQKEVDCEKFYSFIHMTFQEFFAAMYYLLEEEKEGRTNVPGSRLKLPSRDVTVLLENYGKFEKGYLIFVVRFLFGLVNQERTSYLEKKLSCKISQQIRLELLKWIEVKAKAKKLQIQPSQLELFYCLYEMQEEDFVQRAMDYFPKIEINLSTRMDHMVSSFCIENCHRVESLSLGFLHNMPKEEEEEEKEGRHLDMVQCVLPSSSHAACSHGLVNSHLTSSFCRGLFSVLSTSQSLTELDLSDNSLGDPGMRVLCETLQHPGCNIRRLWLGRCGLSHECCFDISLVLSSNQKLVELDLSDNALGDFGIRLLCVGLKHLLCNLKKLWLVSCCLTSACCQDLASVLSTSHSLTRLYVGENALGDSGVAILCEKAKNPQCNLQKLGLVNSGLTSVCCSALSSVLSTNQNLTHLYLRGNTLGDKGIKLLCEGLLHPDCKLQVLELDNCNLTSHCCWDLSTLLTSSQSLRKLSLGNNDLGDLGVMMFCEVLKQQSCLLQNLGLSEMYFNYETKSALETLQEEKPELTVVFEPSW
Description: PMA (phorbol myristate acetate, SIGMA, P1585) was added to THP-1 cells in an amount of 50 ng/mL to culture the cells for 2 days at 37° C. […] LPS (Lipopolysaccharide, SIMGA, L2880) and ATP (Adenosine triphosphate, SIGMA, A2383) were added so that final concentrations become 50 ng/mL and 5 mM, respectively, followed by culturing at 37° C. for 2 hours. The supernatants were collected to measure the concentrations of IL-1β by ELISA (DuoSet ELISA human IL-1β, R&D Systems, DY201). The IL-1β concentrations were plotted against log concentrations of test compounds, and an IC50 value was calculated by sigmoid Emax model nonlinear regression analysis.

[1] = system: TNF-α production in THP-1 cells; test: TNF-α production inhibition test; type: cell-based; conditions: Homo sapiens; PMA-treated THP-1 cells, LPS 50 ng/mL, 2 hours, TNF-α in supernatant by ELISA
Description: PMA (phorbol myristate acetate, SIGMA, P1585) was added to THP-1 cells in an amount of 50 ng/mL to culture the cells for 2 days at 37° C. The culture medium was replaced with a serum-free RPMI-1640 medium, and a compound with a known concentration was added thereto to culture the cells at 37° C. for 15 minutes. LPS (Lipopolysaccharide SIMGA, L2880) was added so that each final concentration becomes 50 ng/mL, followed by culturing at 37° C. for 2 hours. The supernatants were collected to measure the concentration of TNF-α by ELISA (DuoSet ELISA human TNF-α, R&D Systems, DY210). The TNF-α concentrations were plotted against log concentrations of test compounds, and an IC50 value was calculated by sigmoid Emax model nonlinear regression analysis.

CN1CCC[C@@H](Nc2nnc(-c3ccc(C(F)(F)F)cc3O)c3c2COCC3)C1 [Example 125]
IC50 (NLRP3 inflammasome): 1.5 nM | IC50 [1]: ≥ 10000 nM

Oc1cc(Cl)ccc1-c1nnc(N[C@@H]2CCCC[C@H]2O)c2c1CCOC2 [Example 70, 5-chloro-2-(4-{[(1R,2R)-2-hydroxycyclohexyl]amino}-7,8-dihydro-5H-pyrano[3,4-d]pyridazin-1-yl)phenol]
IC50 (NLRP3 inflammasome): 2.1 nM | IC50 [1]: ≥ 10000 nM

CN1CCc2c(-c3ccc(C(F)(F)F)cc3O)nnc(N[C@@H]3CCCC[C@H]3O)c2C1 [Example 73, 2-(4-{[(1R,2R)-2-hydroxycyclohexyl]amino}-6-methyl-5,6,7,8-tetrahydropyrido[3,4-d]pyridazin-1-yl)-5-(trifluoromethyl)phenol]
IC50 (NLRP3 inflammasome): 7.6 nM | IC50 [1]: ≥ 10000 nM

Oc1cc(C(F)(F)F)ccc1-c1nnc(N[C@@H]2CCCC[C@@H]2O)c2c1CCOC2 [4(1), 2-(4-{[(1R,2S)-2-hydroxycyclohexyl]amino}-7,8-dihydro-5H-pyrano[3,4-d]pyridazin-1-yl)-5-(trifluoromethyl)phenol]
IC50 (NLRP3 inflammasome): 2.5 nM | IC50 [1]: ≥ 10000 nM

Oc1cc(OC(F)F)ccc1-c1nnc(N[C@@H]2CCCC[C@H]2O)c2c1CCCC2 [Example 83, 5-(difluoromethoxy)-2-(4-{[(1R,2R)-2-hydroxycyclohexyl]amino}-5,6,7,8-tetrahydrophthalazin-1-yl)phenol]
IC50 (NLRP3 inflammasome): 4.8 nM | IC50 [1]: ≥ 10000 nM

Oc1cc(C(F)(F)F)ccc1-c1nnc(N[C@@H]2CCCC[C@H]2O)c2c1CSC2 [Example 111, 2-(4-{[(1R,2R)-2-hydroxycyclohexyl]amino}-5,7-dihydrothieno[3,4-d]pyridazin-1-yl)-5-(trifluoromethyl)phenol]
IC50 (NLRP3 inflammasome): 2.9 nM | IC50 [1]: ≥ 10000 nM

Oc1cc(C(F)(F)F)ccc1-c1nnc(N[C@@H]2CCCC[C@H]2O)c2c1CCOCC2 [Example 5, 2-(4-{[(1R,2R)-2-hydroxycyclohexyl]amino}-5,6,8,9-tetrahydrooxepino[4,5-d]pyridazin-1-yl)-5-(trifluoromethyl)phenol]
IC50 (NLRP3 inflammasome): 4.7 nM | IC50 [1]: ≥ 10000 nM

Oc1cc(OC(F)F)ccc1-c1nnc(N[C@@H]2CCCC[C@H]2O)c2c1CCOC2 [Example 88, 5-(difluoromethoxy)-2-(4-{[(1R,2R)-2-hydroxycyclohexyl]amino}-7,8-dihydro-5H-pyrano[3,4-d]pyridazin-1-yl)phenol]
IC50 (NLRP3 inflammasome): 1.8 nM | IC50 [1]: ≥ 10000 nM

OCC12CC(Nc3nnc(-c4ccc(C(F)(F)F)cc4O)c4c3CCCC4)(C1)C2 [Example 40]
IC50 (NLRP3 inflammasome): 50 nM

Oc1cc(OC(F)(F)F)ccc1-c1nnc(N[C@@H]2CCCC[C@H]2O)c2c1CCOCC2 [Example 68]
IC50 (NLRP3 inflammasome): 11 nM

COc1ccc(-c2nnc(N[C@@H]3CCOC[C@H]3O)c3c2CCCC3)c(O)c1 [Example 38]
IC50 (NLRP3 inflammasome): 54 nM

COc1ccc(-c2nnc(N[C@@H]3CCCC[C@@]3(C)O)c3c2CCCC3)c(O)c1 [Example 58]
IC50 (NLRP3 inflammasome): 88 nM

Oc1cc(C(F)(F)F)ccc1-c1nnc(N[C@@H]2CCCC[C@H]2O)c2c1CCCOC2 [108(2)]
IC50 (NLRP3 inflammasome): 3 nM

Oc1cc(C(F)(F)F)ccc1-c1nnc(N[C@@H]2CCCC[C@H]2O)c2c1CNC2 [Example 98, 2-(4-{[(1R,2R)-2-hydroxycyclohexyl]amino}-6,7-dihydro-5H-pyrrolo[3,4-d]pyridazin-1-yl)-5-(trifluoromethyl)phenol]
IC50 (NLRP3 inflammasome): 95 nM

C[C@@H](O)CNc1nnc(-c2ccc(C(F)(F)F)cc2O)c2c1[C@H]1CC[C@@H]2CC1 [Example 24]
IC50 (NLRP3 inflammasome): 74 nM

Oc1cc(C(F)(F)F)ccc1-c1nnc(N[C@@H]2CCCC[C@H]2O)c2c1CCCC2 [Example 134, 2-(4-{[(1R,2R)-2-hydroxycyclohexyl]amino}-5,6,7,8-tetrahydrophthalazin-1-yl)-5-(trifluoromethyl)phenol monohydrochloride]
IC50 (NLRP3 inflammasome): 4.6 nM

C[C@@H](O)CNc1nnc(-c2ccc(C(F)(F)F)cc2O)c2c1CCCC2 [Example 17]
IC50 (NLRP3 inflammasome): 20 nM

Oc1cc(C(F)(F)F)ccc1-c1nnc(N[C@@H]2CCCN(C3COC3)C2)c2c1CCCC2 [Example 97, 2-(4-{[(3R)-1-(oxetan-3-yl)piperidin-3-yl]amino}-5,6,7,8-tetrahydrophthalazin-1-yl)-5-(trifluoromethyl)phenol]
IC50 (NLRP3 inflammasome): 3.4 nM

CN1Cc2c(N[C@@H]3CCCC[C@H]3O)nnc(-c3ccc(C(F)(F)F)cc3O)c2C1 [Example 99, 2-(4-{[(1R,2R)-2-hydroxycyclohexyl]amino}-6-methyl-6,7-dihydro-5H-pyrrolo[3,4-d]pyridazin-1-yl)-5-(trifluoromethyl)phenol]
IC50 (NLRP3 inflammasome): 16 nM | IC50 [1]: ≥ 10000 nM

OCC1(CNc2nnc(-c3ccc(C(F)(F)F)cc3O)c3ccccc23)CC1 [Example 13]
IC50 (NLRP3 inflammasome): 15 nM

CN1CCc2c(-c3ccc(OC(F)(F)F)cc3O)nnc(N[C@@H]3CCCC[C@H]3O)c2C1 [Example 76]
IC50 (NLRP3 inflammasome): 23 nM

COc1ccc(-c2nnc(N[C@@H]3CCCN(C)C3)c3c2CCOC3)c(O)c1 [Example 110]
IC50 (NLRP3 inflammasome): 1.4 nM

Cc1ccc(-c2nnc(N[C@@H]3CCCC[C@@]3(C)O)c3c2CCCC3)c(O)c1 [Example 55]
IC50 (NLRP3 inflammasome): 36 nM

Oc1cc(C(F)(F)F)ccc1-c1nnc(N[C@@H]2CCCC[C@H]2O)c2c1OCCC2 [Example 42]
IC50 (NLRP3 inflammasome): 37 nM

C[C@]1(O)C[C@@H](Nc2nnc(-c3ccc(OC(F)(F)F)cc3O)c3c2CCOC3)C1 [57(2)]
IC50 (NLRP3 inflammasome): 94 nM

Oc1cc(C(F)(F)F)ccc1-c1nnc(N[C@@H]2CCCNC2)c2c1CCCC2 [Example 96, 2-(4-{[(3R)-piperidin-3-yl]amino}-5,6,7,8-tetrahydrophthalazin-1-yl)-5-(trifluoromethyl)phenol]
IC50 (NLRP3 inflammasome): 45 nM

C[C@@]1(O)CCCC[C@H]1Nc1nnc(-c2ccc(OC(F)F)cc2O)c2c1CCCC2 [Example 89]
IC50 (NLRP3 inflammasome): 31 nM

Oc1cc(OC(F)(F)F)ccc1-c1nnc(N[C@@H]2CCCC[C@@H]2O)c2c1CCOC2 [Example 127, 2-(4-{[(1R,2S)-2-hydroxycyclohexyl]amino}-7,8-dihydro-5H-pyrano[3,4-d]pyridazin-1-yl)-5-(trifluoromethoxy)phenol]
IC50 (NLRP3 inflammasome): 5.6 nM

Oc1cc(C(F)(F)F)c(F)cc1-c1nnc(N[C@@H]2CCCC[C@H]2O)c2c1CCOC2 [Example 86]
IC50 (NLRP3 inflammasome): 11 nM

Oc1cc(C(F)(F)F)ccc1-c1nnc(N[C@@H]2CCCC[C@H]2O)c2c1COCCC2 [108(1)]
IC50 (NLRP3 inflammasome): 27 nM

C[C@@]1(O)CCCC[C@H]1Nc1nnc(-c2ccc(OC(F)(F)F)cc2O)c2c1CCCC2 [Example 54]
IC50 (NLRP3 inflammasome): 21 nM

Cc1ccc(-c2nnc(NCCCO)c3c2CCCC3)cc1 [Example 6]
IC50 (NLRP3 inflammasome): 9000 nM

Oc1cc(C(F)(F)F)ccc1-c1nnc(N[C@@H]2CCCC[C@H]2O)c2c1CCC2 [Example 19]
IC50 (NLRP3 inflammasome): 81 nM

Oc1cc(C2CC2)ccc1-c1nnc(N[C@@H]2CCCC[C@H]2O)c2c1CCCC2 [Example 51]
IC50 (NLRP3 inflammasome): 13 nM

C[C@]1(O)C[C@@H](Nc2nnc(-c3ccc(Cl)cc3O)c3c2CCCC3)C1 [Example 30]
IC50 (NLRP3 inflammasome): 22 nM

C[C@]1(O)C[C@@H](Nc2nnc(-c3ccc(OC(F)(F)F)cc3O)c3c2COCC3)C1 [57(1)]
IC50 (NLRP3 inflammasome): 19 nM

Oc1cc(OC(F)F)ccc1-c1nnc(N[C@@H]2CCCC[C@H]2O)c2c1CCCOC2 [Example 116]
IC50 (NLRP3 inflammasome): 4.4 nM
